Reference: patent publication US8173840B2, “Compounds with high therapeutic index” (Signature R&D Holdings, LLC, priority 2003, dated 2012)
Values after ≈ are worked out from the molar mass of the structure shown. Values joined by “and” are separate entries in the source; they are usually repeats but may differ in a detail not shown here. Identical values can stand only once. Like-named read-outs stand apart in the source and are kept apart here. Values belong to the compound of their own block, whether it stands above or below them.

Tests used:
[1] = system: albino mice (Swiss strain); assay: 14 day repeated dose toxicity study, intravenous route, propofol esters
[2] = Solubility of propofol and its amino acid esters in water
albino mouse = assay: Anesthetic effect in male albino mice, righting reflex as index; settings: for efficacy in inducing anesthesia based on time required to regain the righting reflex (conclusion): albino mice; for dose response relation (statistical analysis): low, intermediate, high dose
[3] = cited from earlier work; for solubility in deionized water: deionized water at 25° C.
Male albino rats = assay: Blood clotting time in albino rats, 2 hours after dosing; assay type: in vivo, rat; settings: for Mean Clotting Time (± S.D.): 20 mg/kg as aspirin, 2 hours (±10 minutes) after dosing; for mean blood clotting time with respect to positive control (statistics): after two hours
Procedure: Aspirin served as positive control. Male albino rats were exposed to aspirin and to 3 new formulations of amino acid derivatives of aspirin derivatives at one dose level of 20 mg/kg body weight. […]. The doses were expressed as aspirin molar equivalents.
The efficacy in terms of time required for the blood clotting time at the dose level of 20 mg/kg body weight for different formulations of amino acid derivatives of aspirin and aspirin (positive control) are presented below:
The data on the mean clotting time (MCT) of the animals, estimated 2 hours (±10 minutes) after dosing, at the dose level of 20 mg/kg body weight for the formulations of aspirin derivatives, vehicle control and positive control are presented below

[4] = system: fasted male albino rats (Wistar strain); assay: Gastric mucosa irritation of acetylsalicylic acid esters; assay type: in vivo, rat; settings: two doses, 100 and 200 mg/kg
Procedure: Aspirin served as a reference control. […] All the doses were expressed as aspirin molar equivalents. The doses used as well as the molar equivalents are presented below. The rats were fasted for a period of 18 to 22 hours before dosing. The test item was administered as a single dose by gavage. Three hours after drug administration, the animals were killed humanely by CO2 gas inhalation. The stomach was dissected out and observed for • the quantity of mucous exudate, • degree of hyperemia and thickening of stomach wall, • hemorrhagic spots (focal or diffuse), nature of hemorrhages (petechial or ecchymotic) along with the size and • perforations

rats = assay: Clotting time in rats, different date, time intervals and doses (Table 24); assay type: in vivo, rat
Source text: The following additional data were obtained, when the same drugs were compared in rats on a different date with different time intervals and doses: […]

albino rats = assay: Blood clotting time in albino rats, one hour after dosing; assay type: in vivo, rat; settings: for Mean Clotting Time (±S.D.), Low Dose: 1.0 mg/kg as aspirin; for Mean Clotting Time (±S.D.), Low Dose / Mean Clotting Time (±S.D.), Intermediate Dose / Mean Clotting Time (±S.D.), High Dose / statistical analysis of mean clotting time vs vehicle control: one hour after dosing; for Mean Clotting Time (±S.D.), Intermediate Dose: 4.0 mg/kg as aspirin; for Mean Clotting Time (±S.D.), High Dose: 10.0 mg/kg as aspirin; for effectiveness with respect to clotting time: one hour after administration
Procedure: The data on the mean clotting time (MCT) of the animals of low, intermediate and high dose groups of different formulations, vehicle control and positive control groups estimated one hour after dosing were presented below (Table 19):
Aspirin served as positive control. The study was conducted at three dose levels with the new formulations and positive control along with a vehicle control group.
The doses for the main study were selected based on the dose range finding experiments with acetylsalicylic acid. All the doses were expressed as aspirin molar equivalents. The doses used are presented below.

laboratory mice [5] = settings: for performance in the model: DSS coupled with drug from day 1; for Mean DAI: DSS coupled with drug from day 1, 10 mice per group
laboratory mice [6] = assay: DSS induced ulcerative colitis in mice, disease treatment study (Disease Activity Index); assay type: in vivo, mouse; settings: for Mean DAI: treatment started after colitis symptoms, mean of 10 mice
Source text: The mean group DAI is the determined.
Much more dramatic results were obtained when the mice were initially treated with DSS to induce colitis. Once clear symptoms of colitis were seen, DSS was replaced by drinking water, and treatment started with test and reference drugs, including vehicle control. All results are mean of 10 mice.

human volunteers = assay: Blood clotting time studies in human volunteers; assay type: in vivo; settings: for AVERAGE CLOTTING TIME: human volunteers, listed as ASA-T ESTER
Procedure: Several blood clotting time studies were performed on a limited number of human volunteers with Acetylsalicylic Acid-L-Threonine Ester. […] This plot was derived from the data in Table 29. The two Acetylsalicylic Acid-L-Threonine Ester blocks shown above correspond to two separate volunteers who took the test drug over a period of 5 days. The third volunteer took Bayer Aspirin for 5 days. As per FIG. 2, increase in clotting time occurred on the very first day of drug intake, and remained higher than Bayer ASA during the subsequent administrations.

[7] = system: albino rats (Wistar strain); settings: rat, in vivo;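 note: one dose level only, compared with a vehicle control group, with doses stated as Aspirin molar equivalents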
[8] = Plasma aspirin and salicylic acid in human volunteers; assay type: in vivo
Source text: This is shown in FIG. 12 which depicts the concentration of salicyclic Acid in human plasma with respect to four volunteers who took Acetylsalicyclic Acid-L-Threonine Ester and two volunteers who took Aspirin.

Compound: CC(C)c1cccc(C(C)C)c1OC(=O)CN.Cl [Propofol Glycine Ester, Amino-acetic acid 2,6-diisopropyl-phenyl ester, hydrochloride]
feed intake ([1]; 14 days): normal and comparable to that of vehicle control group | behavior, feed consumption, organ weights, histopathology of different organs ([1]; 14 days, vs reference group): normal and comparable to that of the animals of the reference group | animals exhibiting clinical symptoms of toxicity ([1]; IV daily 14 days): None of the animals | body weight gain ([1]; IV daily 14 days, compared to vehicle control): reduced in both the sexes | MCV vs Propofol injection (RC) [p<0.05] ([1]; female animals): significantly decreased | granulocytes counts vs Propofol injection (RC) [p<0.05] ([1]; female animals): significantly increased | reduced body weight gain compared to vehicle control ([1]; females, 14 days): 26.94% | reduced body weight gain compared to vehicle control ([1]; males, 14 days): 25.87% | solubility ([2]; water, solubility in water): > 100 mg/mL | anesthetic effect, relative efficacy (albino mouse; High Dose): more effective | anesthetic effect, relative efficacy (albino mouse; Low Dose): more effective | efficacy in inducing anesthesia based on time required to regain the righting reflex (conclusion) (albino mouse): relatively better efficacy | dose response relation (statistical analysis) (albino mouse): not statistically evident

Compound: NCCCC[C@H](N)C(=O)O [lysine]
solubility [3]: 700 mg/mL (≈ 4790 mM) | solubility in deionized water [3]: approximately 700 g/L

Compound: CC(=O)Oc1ccccc1C(=O)OC1CN[C@H](C(=O)O)C1 (stereo partly drawn) [2-O-Acetylsalicylic Acid (2S,4R)-4-hydroxyproline Ester]
Mean Clotting Time (± S.D.) (Male albino rats): 4.2 ± 1.32 min | mean blood clotting time with respect to positive control (statistics) (Male albino rats): no significant difference at 5% significance level | esters inducing evidence of irritation of gastric mucosa [4]: none | Clotting Time (rats; 10 mg/kg 1 hr): 7.5 min | Clotting Time (rats; 10 mg/kg 24 hr): 3.3 min | Clotting Time (rats; 20 mg/kg 2 hr): 4.2 min | Mean Clotting Time (±S.D.), Low Dose (albino rats): 6.1 ± 1.10 min | Mean Clotting Time (±S.D.), Intermediate Dose (albino rats): 5.7 ± 0.82 min | Mean Clotting Time (±S.D.), High Dose (albino rats): 7.5 ± 1.18 min | effectiveness with respect to clotting time (albino rats): as effective as acetylsalicylic acid | statistical analysis of mean clotting time vs vehicle control (albino rats): significant improvement at 5% significance level in the efficacy for the high dose and low dose

Compound: Cyclosporine A N-(L-proline)-glycine ester, hydrochloride [Cyclosporine-GP]
performance in the model (laboratory mice [5]): statistically significant performance compared to Cyclosporine A | Mean DAI (laboratory mice [5]): 1.062 | Mean DAI (laboratory mice [6]): 0.066 | statistical result vs Cyclosporine reference drug (laboratory mice [6]; treatment study): statistically significant results

Compound: O=C(O)[C@@H]1C[C@@H](O)CN1 [hydroxyproline]
solubility in deionized water [3]: ~369 mg/mL (≈ 2810 mM)

Compound: Cyclosporine A N-(L-lysine)-glycine ester, dihydrochloride trihydrate [Cyclosporine-GL]
Mean DAI (laboratory mice [5]): 1.100 | Mean DAI (laboratory mice [6]): 0.532

Adrenals (Abs) organ weight, Significance[P < 0.05] [7]: Decrease (Male) | Alkaline Phosphatase, Significance [P < 0.05] [7]: Increase (Female) | All Blood Parameters, Significance [P < 0.05] [7]: None | All Clinical Chemistry, Significance [P < 0.05] [7]: None(but two | Blood Glucose, Significance [P < 0.05] [7]: Decrease (Female) | Cholesterol, Significance [P < 0.05] [7]: Increase (Male) | Creatinine, Significance [P < 0.05] [7]: Decrease (Male) | Kidney (Abs) organ weight, Significance[P < 0.05] [7]: Decrease (Male) | Kidney (Rel) organ weight, Significance[P < 0.05] [7]: Increase (Male) | Platelet Count, Significance [P < 0.05] [7]: Increase (Male) | Spleen (Abs) organ weight, Significance[P < 0.05] [7]: Decrease (Male) | Total Protein, Significance [P < 0.05] [7]: Increase (Female) | Aspirin in blood / plasma ([8]; 325 mg dose, oral): No Aspirin was found in blood
Compound: CC(=O)Oc1ccccc1C(=O)O[C@H](C)[C@H](N)C(=O)O [2-O-Acetylsalicylic Acid (2S,3R)-(−)-threonine Ester]
AVERAGE CLOTTING TIME (human volunteers; 81 mg): 5.2 min and 5.1 min | AVERAGE CLOTTING TIME (human volunteers; 325 mg): 6.2 min and 6.0 min | effectiveness on clotting time (human volunteers; low dose of 80 mg, with baseline correction): as effective as 325 mg Bayer Aspirin | Food intake [7]: normal and comparable to the animals of vehicle control group | histological sections of organs [7]: did not show any histopathological changes | Salicylic Acid in human plasma (profile, words) [8]: prolonged and sustained formation and disappearance of Salicylic acid | Mean Clotting Time (± S.D.) (Male albino rats): 5.3 ± 1.06 min | relative efficacy on clotting time (Male albino rats; 2 hours after dosing): relatively better efficacy than the other two formulations | mean blood clotting time with respect to positive control (statistics) (Male albino rats): no significant difference at 5% significance level | esters inducing evidence of irritation of gastric mucosa [4]: none | Clotting Time (rats; 10 mg/kg 1 hr): 7.4 min | Clotting Time (rats; 10 mg/kg 24 hr): 3.6 min | Clotting Time (rats; 20 mg/kg 2 hr): 5.3 min | response in the rat blood clotting time (rats; compared against the various amino acid esters): consistently a better response | Mean Clotting Time (±S.D.), Low Dose (albino rats): 5.2 ± 1.14 min | Mean Clotting Time (±S.D.), Intermediate Dose (albino rats): 5.6 ± 0.84 min | Mean Clotting Time (±S.D.), High Dose (albino rats): 7.4 ± 0.97 min | effectiveness with respect to clotting time (albino rats): as effective as acetylsalicylic acid | statistical analysis of mean clotting time vs vehicle control (albino rats): significant improvement at 5% significance level in the efficacy for the high dose

Compound: Glycine Ester of Cyclosporine A [Cyclosporine-G]
performance in the model (laboratory mice [5]): didn't perform as expected | Mean DAI (laboratory mice [5]): 1.531 | Mean DAI (laboratory mice [6]): 0.100 | mice that died (out of 10) (laboratory mice [6]; treatment study): none died | statistical result vs Cyclosporine reference drug (laboratory mice [6]; treatment study): statistically significant results

Compound: CC(C)c1cccc(C(C)C)c1OC(=O)C(N)CCCCN.Cl.Cl (stereo in doubt) [Propofol Lysine Ester, 2(S),6-Diamino-hexanoic acid 2,6-diisopropyl-phenyl ester, dihydrochloride]
solubility in water [2]: > 250 mg/mL | anesthetic effect, relative efficacy (albino mouse; Intermediate Dose): did not show any anesthetic effect | anesthetic effect, relative efficacy (albino mouse; Low Dose): did not show any anesthetic effect | efficacy in inducing anesthesia based on time required to regain the righting reflex (conclusion) (albino mouse): relatively better efficacy | dose response relation (statistical analysis) (albino mouse): significant improvement at 5% significance level in the relative efficacy for the high dose when compared to low dose group

Compound: CC(=O)Oc1ccccc1C(=O)OC[C@H](N)C(=O)O [L-serine ester of acetylsalicylic acid, 2-O-Acetylsalicylic Acid (2S)-(+)-serine Ester]
Mean Clotting Time (± S.D.) (Male albino rats): 3.8 ± 0.92 min | esters inducing evidence of irritation of gastric mucosa [4]: none | Clotting Time (rats; 10 mg/kg 1 hr): 6.9 min | Clotting Time (rats; 10 mg/kg 24 hr): 4.4 min | Clotting Time (rats; 20 mg/kg 2 hr): 3.8 min | Mean Clotting Time (±S.D.), Low Dose (albino rats): 5.7 ± 1.34 min | Mean Clotting Time (±S.D.), Intermediate Dose (albino rats): 6.8 ± 1.48 min | Mean Clotting Time (±S.D.), High Dose (albino rats): 6.9 ± 1.37 min | effectiveness with respect to clotting time (albino rats): as effective as acetylsalicylic acid
